This note sets out measurements from ChEMBL document CHEMBL1201862, “PubChem BioAssay data set” (2004).

Some test systems named below: Malme-3M; BT-549; OVCAR-4; SN12C; A549; OVCAR-5; HOP-92; U-251; A498; SK-MEL-28; M14; COLO 205; SF-539; SK-MEL-2; NCI/ADR-RES; LOX IMVI; KM12; SF-268; MOLT-4; DMS-273.
Test in all cases: inhibition of tumour cell growth, NCI panel, 48 h

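Step 1: Grow cells in 96-well plates. Step 2: Expose to compound for 48 hours at 5 concentrations. Step 3: Interpolate endpoints linearly; if unreached, use highest concentration. GI50 = concentration required for 50% inhibition of growth.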 The source made the active and inactive calls. No stated cut-off is given here; in the data, active = GI50 up to about 1.1 µM and inactive = higher.

Consider `CCCc1cn2c(/C=N/NC(=N)N)c(-c3ccc(Cl)c([N+](=O)[O-])c3)nc2s1`, for which the GI50 with Malme-3M is 1.68 µM (inactive); in the experiment with BT-549 it was 1.68 µM (inactive); in the experiment with OVCAR-4 it was 1.06 µM (active); in the experiment on SN12C it was 1.84 µM (inactive); in the experiment with A549, 1.73 µM (inactive); in the experiment on OVCAR-5 it was 1.55 µM (inactive). Besides, the GI50 in the experiment on HOP-92 was 1.68 µM (inactive); with U-251, 1.63 µM (inactive); with A498, 1.66 µM (inactive); in the experiment with SK-MEL-28, 1.64 µM (inactive); with M14, 1.91 µM (inactive); in the experiment on COLO 205, 1.51 µM (inactive). In addition, the GI50 in the experiment with SF-539 is 1.88 µM (inactive); in the experiment with SK-MEL-2, 1.71 µM (inactive); with NCI/ADR-RES, 2.21 µM (inactive); with LOX IMVI, 1.7 µM (inactive); with KM12, 1.33 µM (inactive); in the experiment with SF-268 it was 2.36 µM (inactive). For the same molecule, in the experiment with MOLT-4, the GI50 was 0.171 µM (active).

In the case of `CC1(C)OC1CC/C(=C/CBr)CBr` (stereo unspecified), the GI50 is 22.3 µM (inactive) in the experiment with Malme-3M; 16.7 µM (inactive) with BT-549; 17 µM (inactive) in the experiment with OVCAR-4; 15.6 µM (inactive) in the experiment on SN12C; 21.3 µM (inactive) in the experiment on A549; 17.5 µM (inactive) in the experiment on OVCAR-5. Besides, the GI50 is 15.4 µM (inactive) in the experiment on HOP-92; 15.6 µM (inactive) in the experiment on U-251; 21.4 µM (inactive) with A498; 17.2 µM (inactive) in the experiment with SK-MEL-28; 19.8 µM (inactive) in the experiment with M14; 15.9 µM (inactive) with COLO 205. The GI50 with SF-539 is 18.1 µM (inactive); with SK-MEL-2 it was 14.8 µM (inactive); with NCI/ADR-RES it was 18.8 µM (inactive); with LOX IMVI, 10.2 µM (inactive); with KM12, 16 µM (inactive); in the experiment with SF-268 it was 15.5 µM (inactive). In the experiment with MOLT-4, the GI50 is 16.7 µM (inactive).

Consider `O=[N+]([O-])c1ccc(-c2ccc(C3=Nn4c(CNc5ccccc5Cl)nnc4SC3)o2)cc1`, for which the GI50 in the experiment with Malme-3M, with DMS-273, with SN12C, with A549, in the experiment on OVCAR-5 and with HOP-92 was > 100 µM (inactive) in each case. Also, the GI50 with U-251, with SK-MEL-28, with M14, with COLO 205, in the experiment on SF-539 and with SK-MEL-2 was > 100 µM (inactive) in each case. Besides, the GI50 in the experiment on LOX IMVI was 42.7 µM (inactive); with KM12, > 100 µM (inactive); with SF-268 it was > 100 µM (inactive); with MOLT-4 it was > 100 µM (inactive).

As for `NCCOc1cccc(C2(N3CCCCC3)CCCCC2)c1`, the GI50 with Malme-3M was 20.1 µM (inactive); in the experiment with BT-549 it was 19.1 µM (inactive); in the experiment on OVCAR-4 it was 35.9 µM (inactive); in the experiment with SN12C it was > 100 µM (inactive); in the experiment with A549 it was 37.2 µM (inactive); with OVCAR-5, 41.4 µM (inactive). Besides, the GI50 was 0.773 µM (active) with HOP-92; 18.2 µM (inactive) in the experiment with U-251; 30 µM (inactive) in the experiment with A498; 18.7 µM (inactive) with SK-MEL-28; 16.4 µM (inactive) in the experiment on M14; 12.3 µM (inactive) in the experiment with COLO 205. Besides, the GI50 with SF-539 was 17.5 µM (inactive); with SK-MEL-2 it was 21.8 µM (inactive); in the experiment with NCI/ADR-RES it was > 100 µM (inactive); in the experiment on LOX IMVI, 14.7 µM (inactive); in the experiment on KM12, 45.3 µM (inactive); in the experiment with SF-268, 25.6 µM (inactive). Moreover, in the experiment on MOLT-4, the GI50 was 19.4 µM (inactive).

As to `O=C(O)C(Oc1nc(S)nc(S)n1)(c1ccc(Cl)cc1)c1ccc(Cl)cc1`, the GI50 in the experiment with Malme-3M, with BT-549, with OVCAR-4, with SN12C, with A549 and in the experiment with OVCAR-5 was > 100 µM (inactive) in each case. In addition, the GI50 in the experiment on HOP-92, in the experiment with U-251, in the experiment with A498, with SK-MEL-28, in the experiment with M14 and in the experiment with COLO 205 was > 100 µM (inactive) throughout. Moreover, the GI50 with SF-539, in the experiment on SK-MEL-2, with NCI/ADR-RES, in the experiment on LOX IMVI, with KM12 and in the experiment on SF-268 was > 100 µM (inactive) throughout. Further, the GI50 with MOLT-4 was > 100 µM (inactive).

As for `CCOC(=O)C1=C(C)N(Cc2ccccc2)C2(O)C=CC(O)=C3C(=O)c4ccccc4C(=O)C312` (stereo unspecified), the GI50 in the experiment with Malme-3M is 2.43 µM (inactive); with BT-549, 0.541 µM (active); in the experiment with OVCAR-4, 15.4 µM (inactive); in the experiment with SN12C, 13.5 µM (inactive); in the experiment on A549, 15.3 µM (inactive); in the experiment with OVCAR-5, 15.8 µM (inactive). Besides, the GI50 was 17.2 µM (inactive) in the experiment on HOP-92; 16.6 µM (inactive) in the experiment on U-251; 23.6 µM (inactive) with A498; 28.6 µM (inactive) with SK-MEL-28; 4.99 µM (inactive) with M14; 16.8 µM (inactive) with COLO 205. In addition, the GI50 was 16.3 µM (inactive) in the experiment with SF-539; 13.9 µM (inactive) in the experiment on SK-MEL-2; 0.182 µM (active) in the experiment with NCI/ADR-RES; 14.1 µM (inactive) in the experiment with LOX IMVI; 12.1 µM (inactive) in the experiment with KM12; 10.1 µM (inactive) in the experiment on SF-268. The GI50 with MOLT-4 is 8.15 µM (inactive).

Regarding `CCCC1c2c(ccc3ccccc23)Oc2ccc3ccccc3c21`, the GI50 with Malme-3M is 57.3 µM (inactive); in the experiment on BT-549, > 100 µM (inactive); in the experiment on OVCAR-4, > 100 µM (inactive); in the experiment on SN12C it was 65.3 µM (inactive); in the experiment with A549, 47.5 µM (inactive); in the experiment on OVCAR-5, 54.1 µM (inactive). In addition, the GI50 in the experiment on HOP-92 is > 100 µM (inactive); with U-251, 40.2 µM (inactive); with A498 it was 23.7 µM (inactive); in the experiment with SK-MEL-28, 68.4 µM (inactive); with M14, 74 µM (inactive); in the experiment on COLO 205, 41.9 µM (inactive). The GI50 is > 100 µM (inactive) in the experiment on SF-539; 20.3 µM (inactive) with SK-MEL-2; 94 µM (inactive) in the experiment with NCI/ADR-RES; 32.5 µM (inactive) with LOX IMVI; 39.3 µM (inactive) in the experiment on KM12; 79.8 µM (inactive) in the experiment with SF-268. The GI50 with MOLT-4 was 37.6 µM (inactive).

Turning to `O=[N+]([O-])c1ccc2c(c1)Nc1c3ccccc3nc3cccc-2c13`, the GI50 is 2 µM (inactive) with Malme-3M; 16.3 µM (inactive) with BT-549; 1.43 µM (inactive) in the experiment with OVCAR-4; 11.3 µM (inactive) with SN12C; 2.16 µM (inactive) in the experiment with A549; 6.93 µM (inactive) in the experiment on OVCAR-5. The GI50 with HOP-92 is 4.73 µM (inactive); with U-251, 3.18 µM (inactive); in the experiment with A498 it was 34.5 µM (inactive); in the experiment on SK-MEL-28, 6.52 µM (inactive); with M14, 3.21 µM (inactive); in the experiment on COLO 205, 2.68 µM (inactive). The GI50 is 12.1 µM (inactive) with SF-539; 15 µM (inactive) in the experiment with SK-MEL-2; 2.82 µM (inactive) in the experiment with NCI/ADR-RES; 1.93 µM (inactive) with LOX IMVI; 3.57 µM (inactive) in the experiment on KM12; 8.61 µM (inactive) in the experiment with SF-268. Further, in the experiment with MOLT-4, the GI50 was 0.895 µM (active).

In the case of `CC1=C(C)C(=O)C(C2=C(C3=CC(=O)C(C)=C(C)C3=O)C(=O)C(C)=C(C)C2=O)=CC1=O`, the GI50 in the experiment with Malme-3M was 3.1 µM (inactive); in the experiment with BT-549 it was 10 µM (inactive); in the experiment with OVCAR-4, 1.79 µM (inactive); in the experiment with SN12C it was 13.9 µM (inactive); in the experiment on A549, 30.3 µM (inactive); in the experiment on OVCAR-5, 7.85 µM (inactive). Moreover, the GI50 was 0.61 µM (active) in the experiment on HOP-92; 3.68 µM (inactive) with U-251; 14.3 µM (inactive) in the experiment with A498; 6.87 µM (inactive) in the experiment on SK-MEL-28; 10 µM (inactive) with M14; 2.89 µM (inactive) in the experiment on COLO 205. In addition, the GI50 is 2.17 µM (inactive) in the experiment with SF-539; 14.5 µM (inactive) with SK-MEL-2; 1.13 µM (inactive) in the experiment with NCI/ADR-RES; 2.57 µM (inactive) in the experiment with LOX IMVI; 8.51 µM (inactive) in the experiment with KM12; 12.6 µM (inactive) in the experiment on SF-268. Further, in the experiment with MOLT-4, the GI50 is 0.697 µM (active).

As to `N#Cc1c(SCc2ccccc2)nc(-c2ccccc2)[nH]c1=S`, the GI50 was 37.2 µM (inactive) with Malme-3M; 20.6 µM (inactive) in the experiment with BT-549; 30.9 µM (inactive) in the experiment with OVCAR-4; 32.5 µM (inactive) in the experiment on SN12C; 30.8 µM (inactive) in the experiment on A549; 25.8 µM (inactive) with OVCAR-5. The GI50 with HOP-92 was 31.6 µM (inactive); with U-251, 21.4 µM (inactive); with A498, 27.3 µM (inactive); in the experiment with SK-MEL-28, 22.3 µM (inactive); with M14, 29.9 µM (inactive); in the experiment on COLO 205 it was 17.1 µM (inactive). Also, the GI50 is 25.2 µM (inactive) in the experiment with SF-539; 16.7 µM (inactive) with SK-MEL-2; 23.5 µM (inactive) in the experiment on NCI/ADR-RES; 30 µM (inactive) in the experiment with LOX IMVI; 17.4 µM (inactive) in the experiment with KM12; 22 µM (inactive) in the experiment with SF-268. For the same molecule, the GI50 with MOLT-4 is 29 µM (inactive).

`CC(O)c1cc2c(s1)C(=O)c1scc(C(C)O)c1C2=O` (stereo unspecified): the GI50 with Malme-3M is 0.172 µM (active); in the experiment on BT-549 it was 0.211 µM (active); in the experiment on OVCAR-4, 0.745 µM (active); in the experiment on SN12C, 0.53 µM (active); in the experiment on A549, 0.67 µM (active); with OVCAR-5 it was 1.37 µM (inactive). The GI50 in the experiment with HOP-92 was 1.96 µM (inactive); in the experiment on U-251, 0.419 µM (active); with A498, 2.2 µM (inactive); with SK-MEL-28 it was 0.279 µM (active); in the experiment with M14, 0.19 µM (active); in the experiment on COLO 205, 1.91 µM (inactive). Further, the GI50 in the experiment on SF-539 is 0.23 µM (active); in the experiment with SK-MEL-2, 0.224 µM (active); in the experiment on NCI/ADR-RES, 0.283 µM (active); with LOX IMVI it was 0.172 µM (active); in the experiment with KM12, 1.79 µM (inactive); with SF-268 it was 0.28 µM (active). In addition, the GI50 in the experiment on MOLT-4 was 0.753 µM (active).
